Reference: US12295997B2, “Prostate neoantigens and their uses” (Janssen Biotech, Inc., priority 2020, dated 2025)

Key:
[1] = system: CD8+ T cells in PBMCs from human patients with metastatic castrate-resistant prostate cancer; test: Patient PBMC restimulation assay (in vitro immunogenicity, TNFα/IFNγ intracellular flow cytometry); format: cell-based; conditions: 9-mer peptide; for Maximum fold change over negative control: TNFα+IFNγ+CD8+ T cells, highest across PBMC donors evaluated; for Maximum frequency of TNFα^+IFNγ^+CD8^+ T cells (Percent): greatest frequency among all tested PBMC donors; for Immunogenic: patient PBMC restimulation
Method: PBMCs from human patients with metastatic castrate-resistant prostate cancer were thawed using media (RPMI 1640 supplemented with Glutamax, 10% HI FBS, and 1× Sodium Pyruvate). Cells were counted and plated in a 96 well round bottom microplate at a concentration of 250,000 viable cells per well. Lyophilized peptides were solubilized in 100% DMSO and diluted in media to 10 μg/mL. Neoantigen peptides were added in equal volume to PBMCs for a final concentration of 5 μg/mL. CEF Peptide Pool “Plus” (Cellular Technologies, Ltd.) was utilized as a positive control and DMSO at the same final concentration as the experimental peptides was utilized as a negative control. Human IL-15 (Peprotech) was added to all wells at final concentration of 10 ng/mL.
Plates were incubated at 37° C. (5% CO2) for a total of 13 days. Media was refreshed every 2 days with IL-15 (10 ng/mL final concentration) and IL-2 (R&D systems, 10 IU/mL final concentration). On day 12, PBMCs were re-stimulated with identical experimental peptides or controls, at same concentration as peptide stimulation on Day 1. After 1-hour incubation, protein Inhibitor Cocktail (eBioscience) was added to every well and plate was incubated overnight.
On day 13, cells were stained for intracellular flow cytometry analysis. The cells were washed with PBS and stained with Live/Dead Fixable Aqua Dead Cell stain (Thermo-Fisher). Following the live/dead stain, cells were blocked using Biotin-Free Fc Receptor Blocker (Accurate Chemical & Scientific Corp). Extracellular cellular flow panel ([…] per well in 50 μL) consisted of CD3 PerCP-Cy5.5 (Biolegend), CD4 BV421 (Biolegend), and CD8 APC-Cy7 (Biolegend). After extracellular staining, cells were fixed using Foxp3/fTranscription Factor Staining Buffer Set (eBioscience) and stained for intracellular proteins (1:50 dilution) using TNFα FITC (R&D Systems) and IFNγ BV785 (Biolegend). Cells were washed and resuspended in stain buffer and analyzed using a BD Celesta flow cytometer.
Flow cytometry cell staining analysis was completed using FlowJo v10. Cells were gated on live, singlet, CD3+ cells. The CD8+ T cells were analyzed for TNFα/IFNγ expression and the frequency of double positive TNFα/IFNγ CD8+ T cells was recorded. Responses were assessed to be positive when the frequency of double positive TNFα/IFNγ CD8+ T cells due to stimulation with an experimental peptide was increased greater than or equal to 2-fold over the DMSO only negative control for that patient. Peptides were analyzed in 1 to 7 patient samples.
The 9 mer fragments shown in Table 13 were assessed for their ability to activate T cells using the Patient PBMC restimulation assay described in Example 1 using TNFα and IFNγ production by CD8^+ T cells as a readout. Self-antigens shown in Table 15 were also used in the assays. […] PBMCs from ten patients were evaluated.

[2] = system: CD8+ and CD4+ T cells (autologous CD3+ Pan-T cells isolated from human normal PBMCs); test: Exogenous autologous normal donor restimulation assay (15-mer overlapping peptide pools on CD1c+ dendritic cells, TNFα/IFNγ flow cytometry); format: cell-based; conditions: Table 25, 15-mer overlapping peptide pool; for Maximum Fold Change Over Background CD4+ cells: TNFα+IFNγ+ CD4+ T cells; for Maximum Fold Change Over Background CD4+ cells / Maximum Fold Change Over Background CD8+ cells: highest fold change over negative control across normal donors; for Maximum Fold Change Over Background CD8+ cells: TNFα+IFNγ+ CD8+ T cells; for Maximum Frequency of TNFα/IFNγ Double Positive CD4+ T cells / Maximum Frequency of TNFα/IFNγ Double Positive CD8+ T cells: highest frequency across normal donors
Summary of the method: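 Readout was intracellular TNFα/IFNγ flow cytometry on live CD3+ CD8+ and CD4+ cells after day-11 peptide restimulation. Stimulators were CD1c+ dendritic cells loaded with overlapping 15-mer peptide pools (2.5–10 μg/mL), irradiated, and cultured 12 days with autologous normal-donor Pan-T cells plus IL-15/IL-2. A response counted when ≥3-fold over DMSO control and at least 0.01%.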

[3] = biological target: HLA-A*01:01 (Homo sapiens, UniProt P04439, A114D/A174V/A182V/D101N/D185E/E176A/E190D/L180R/Q94H/R68K/S129P/T187R/V100A/V91M/W191G); test: In vitro binding of neoantigens to class I MHC (UV peptide exchange, HLA class I ELISA); conditions: 100% = same binding as positive control peptide
Method: (§1) The 9 mer peptides identified by bioinformatics analysis were analyzed for their binding propensities to 6 common HLA class I alleles (HLA-A*01:01, A*02:01, A*03:01, A*24:02, B*07:02, B*08:01). The principle of the method is briefly described below and consists of two parts, one involving exchange of peptide with a positive control induced by Ultraviolet (UV) radiation, and the second is an enzyme immunoassay to detect stable HLA-peptide and empty HLA complexes.
(§2) HLA-bound peptides are critical for the stability of the HLA complex. A conditional HLA class I complex was stabilized by an UV-labile peptide utilizing a different peptide (Pos) for each HLA (Pos: HLA-A*01:01: […](SEQ ID NO: 409), HLA-A*02:01: […] (SEQ ID NO: 410), HLA-A*03:01: […] (SEQ ID NO: 411), HLA-A*24:02: […] (SEQ ID NO: 412), HLA-B*07:02: […] (SEQ ID NO: 413), HLA-B*08:01: […] (SEQ ID NO: 414), which could be cleaved by UV irradiation when bound to the HLA molecule. Upon cleavage, the resulting peptide fragments dissociated from the HLA class I complex since their length was insufficient to bind stably to HLA. Under the conditions in which peptide cleavage was performed (neutral pH, on melting ice), the peptide-free HLA complex remained stable.
(§3) The exchange efficiency between the peptide of interest and Pos was analyzed using an HLA class I ELISA. The combined technologies allowed the identification of ligands for an HLA molecule of interest which are potentially immunogenic.
(§4) Exchange control peptide Pos was a high affinity binder to the relevant HLA class I allele while exchange control peptide Neg was a non-binder. The UV control represented UV-irradiation of conditional HLA class I complex in the absence of a rescue peptide.
(§5) The HLA class I ELISA is an enzyme immunoassay based on the detection of beta2-microglobulin (B2M) of (peptide-stabilized) HLA class I complexes. To this end streptavidin was bound onto polystyrene microtiter wells. After washing and blocking, HLA complex present in exchange reaction mixtures or ELISA controls was captured by the streptavidin on the microtiter plate via its biotinylated heavy chain. Non-bound material was removed by washing. Subsequently, horseradish peroxidase (HRP)-conjugated antibody to human B2M was added. The HRP-conjugated antibody binds only to an intact HLA complex present in the microtiter well because unsuccessful peptide exchange results in disintegration of the original UV-sensitive HLA complex upon UV illumination. In the latter case B2M was removed during the washing step. After removal of non-bound HRP conjugate by washing, a substrate solution was added to the wells. A coloured product formed in proportion to the amount of intact HLA complex present in the samples. After the reaction was terminated by the addition of a stop solution, absorbance was measured in a microtiter plate reader. The absorbance was normalized to the absorbance of an exchange control peptide (represents 100%). Suboptimal HLA binding of peptides with a moderate to low affinity for HLA class I molecules can also be detected by this ELISA technique (Rodenko, B et al. (2006) Nature Protocols 1: 1120-32).
(§6) Peptides that had 10% or greater exchange efficiency in one of the 6 HLA alleles were considered for further immunogenicity testing and analysis.
(§7) Binding of select neoepitopes to HLA-A*01:01, HLA-A*02:01, HLA-A*03:01, HLAA*24:02, HLAAB*07:02 and HLA-B*08:01 was evaluated using the assay described in Example 1. […] As a criterion for further evaluation, peptides with an exchange rate of at least 10% with the corresponding Pos peptide for at least one of the 6 HLA alleles that we considered for further evaluation. The exchange rates with the allele specific Pos peptides, of the 24 neoantigens so identified are summarized below in Table 17. Higher percentages correspond to stronger binding to the HLA allele. […]

[4] = biological target: HLA-A*02:01 (Homo sapiens, UniProt P04439, D140Y/D185E/D98H/E176V/E277Q/G131W/G231S/I119V/I121R/I166T/I218V/L300P/L318F/N151K/N90K/P208A/P217A/Q86G/Q94H/R138H/R169H/T345S); test: as above; conditions: 100% = same binding as positive control peptide
Method: as §1, §2, §3, §4, §5, §6, §7

[5] = biological target: HLA-A*24:02 (Homo sapiens, UniProt P04439, D101N/D140Y/D185E/E176V/E190D/F33S/G103R/G107R/I119L/I121M/I306V/K335N/L105A/L180Q/L300P/N151K/N90K/Q86E/Q94H/R106L/R138H/R89G/T104I/T345S/V100E/W191G/Y123F); test: as above; conditions: 100% = same binding as positive control peptide
Method: as §1, §2, §3, §4, §5, §6, §7

[6] = biological target: HLA-B*07:02 (Homo sapiens, UniProt P01889); test: as above; conditions: 100% = same binding as positive control peptide
Method: as §1, §2, §3, §4, §5, §6, §7

[7] = biological target: HLA-A*03:01 (Homo sapiens, UniProt P04439); test: as above; conditions: 100% = same binding as positive control peptide
Method: as §1, §2, §3, §4, §5, §6
Binding of select neoepitopes to HLA-A*01:01, HLA-A*02:01, HLA-A*03:01, HLAA*24:02, HLAAB*07:02 and HLA-B*08:01 was evaluated using the assay described in Example 1. […] As a criterion for further evaluation, peptides with an exchange rate of at least 10% with the corresponding Pos peptide for at least one of the 6 HLA alleles that we considered for further evaluation. The exchange rates with the allele specific Pos peptides, of the 24 neoantigens so identified are summarized below in Table 17. Higher percentages correspond to stronger binding to the HLA allele.

[8] = biological target: HLA-B*08:01 (Homo sapiens, UniProt P01889, A93T/A95T/D138N/E176V/E187T/K202T/Q94N/R180D/S35A/V36M/Y33D/Y91F); test: as above
Method: as §1, §2, §3, §4, §5, §6, §7

Substance | Maximum fold change over negative control [1] | Maximum frequency of TNFα^+IFNγ^+CD8^+ T cells (Percent) [1] [%] | Immunogenic [1] | Exchange rate with allele specific Pos peptide, HLA-A*01:01 [3] [%] | Exchange rate with allele specific Pos peptide, HLA-A*24:02 [5] [%] | Exchange rate with allele specific Pos peptide, HLA-B*07:02 [6] [%] | Exchange rate with allele specific Pos peptide, HLA-A*03:01 [7] [%] | other results
GVPGDSTRRAVRRMNTF (listed as Homo sapiens) [Neoantigen P16] | 65.82 | 4.620 | Yes | – | – | – | – | Maximum Fold Change Over Background CD4+ cells [2]: 2.44; Maximum Fold Change Over Background CD8+ cells [2]: 2.44; Maximum Frequency of TNFα/IFNγ Double Positive CD4+ T cells [2]: 0.039; Maximum Frequency of TNFα/IFNγ Double Positive CD8+ T cells [2]: 0.039
P48 (VQPIARELYQFTFDLLI; listed as Homo sapiens) [Peptide P48] | – | 0.220 | Yes | 4.3 | 0.1 | 12.8 | 4.4 | Exchange rate with allele specific Pos peptide, HLA-A*02:01 [4]: 99.3%
P37 (MAGGVLRRLLCREPDRDGDKGASREETVVPLHIGDPVVLPGIGQCYSALF; listed as Homo sapiens) [Peptide P37] | 3.13 | 1.160 | Yes | – | – | – | – | –
8 (QLIAMDSAI; listed as Homo sapiens) [Peptide 8] | – | – | – | – | – | – | – | Exch I (%) ([8]; Binding to HLA-B*08:01, UV peptide exchange, replicate I, Pos = 100): 8.0%; Exch II (%) ([8]; Binding to HLA-B*08:01, UV peptide exchange, replicate II, Pos = 100): 7.8%; Average % ([8]; Binding to HLA-B*08:01, average of Exch I and Exch II): 7.9%
P17 (GVPGDSTRRAVRRMNTF; listed as Homo sapiens) [Peptide P17] | – | 0.130 | Yes | 4.9 | 0.1 | 38.7 | 3.8 | Exchange rate with allele specific Pos peptide, HLA-B*08:01 ([8]; 100% = same binding as positive control peptide): 9%
NSKMALNSLNSIDDAQLTRIAPPRSHCCFWEVNAP (listed as Homo sapiens) [Neoantigen P35] | 2.67 | 0.064 | Yes | – | – | – | – | Maximum Fold Change Over Background CD4+ cells [2]: 3.47; Maximum Fold Change Over Background CD8+ cells [2]: 14.44; Maximum Frequency of TNFα/IFNγ Double Positive CD4+ T cells [2]: 0.03; Maximum Frequency of TNFα/IFNγ Double Positive CD8+ T cells [2]: 0.26
P50 (QMAVIQYSCMGLMVFAM; listed as Homo sapiens) [Peptide P50] | 5.14 | 0.190 | Yes | – | – | – | – | –
P76 (YCMAAPMGL) [Peptide P76] | – | 0.170 | Yes | 0.1 | −0.5 | 91.5 | 6 | Exchange rate with allele specific Pos peptide, HLA-A*02:01 [4]: 85.9%
P77 (FFKRAAEGF) [Peptide P77] | 3.24 | 0.160 | Yes | – | – | – | – | –
